Assay results published in article PMC5575254, “An allosteric ligand-binding site in the extracellular cap of K2P channels” (Nature Communications, 2017).

What was measured:
TRAAK = target: T1, TRAAK (Homo sapiens, UniProt Q9NYG8); test: Whole-cell voltage clamp of CHO cells expressing TRAAK; assay type: cell-based; details: whole-cell
T1 construct: expressed in transfected cells; host or cells: CHO cells, transient transfection
T1 sequence (Q9NYG8 1-393): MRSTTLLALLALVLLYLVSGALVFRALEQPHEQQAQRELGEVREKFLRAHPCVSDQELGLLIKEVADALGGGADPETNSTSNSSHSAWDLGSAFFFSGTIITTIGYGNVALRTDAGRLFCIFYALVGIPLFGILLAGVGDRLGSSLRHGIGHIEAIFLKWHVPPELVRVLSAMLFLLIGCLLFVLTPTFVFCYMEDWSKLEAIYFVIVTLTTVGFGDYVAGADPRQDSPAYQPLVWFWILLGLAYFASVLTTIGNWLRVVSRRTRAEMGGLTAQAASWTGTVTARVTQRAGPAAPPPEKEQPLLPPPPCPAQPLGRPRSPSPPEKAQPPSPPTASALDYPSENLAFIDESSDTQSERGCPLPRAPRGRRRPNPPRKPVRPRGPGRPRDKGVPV
Description: cDNA of the human TREK-1, TREK-2 and TRAAK channels were subcloned into the pEGFPN1 expression vector (Invitrogen), respectively. Mutations were introduced into TREK-1 or TRAAK by PCR using the QuickChange XL sitedirected mutagenesis kit (Agilent Technologies) and were subsequently confirmed by DNA sequencing.
Chinese hamster ovary (CHO) cells were provided by the Cell Bank of Chinese Academy of Sciences (Shanghai, China). CHO cells were maintained in DMEM/F12 (Gibco) supplemented with 10% fetal bovine serum (Gibco) and 100 μg ml^−1 penicillin-streptomycin (Cellgro) in a humidified incubator at 37 °C (5% CO2). For electrophysiology experiments, cells plated in 35 mm tissue culture dishes (Corning Incorporated) were transiently transfected with the plasmids using PolyJet™ reagent (SignaGen) according to the manufacturer’s instructions. Primers used in this study are listed in Supplementary Table 4.
All electrophysiological recordings were obtained using patch-clamp recordings in two different configurations: (1) whole cell for macroscopic current dose–response curves; and (2) outside-out and inside-out for macroscopic currents recordings.
All patch-clamp recordings were conducted 36–96 h after transfection with an Axopatch-200B amplifier (Molecular Devices) at room temperature (23–25 °C). The microelectrodes fashioned from 1.5 mm thin-walled borosilicate glass with filament were pulled from Flaming/Brown type micropipette puller (P-97; SUTTER INSTRUMENT) with the resistances of 3–7 MΩ (whole cell) or 7–15 MΩ (outside-out) when filled with a solution containing (in mM): 140 KCl, 2 MgCl2, 10 EGTA, 1 CaCl2, 10 HEPES (pH 7.3, adjusted with KOH). External solution contained (in mM): 150 NaCl, 5 KCl, 0.5 CaCl2, 1.2 MgCl2, 10 HEPES (pH 7.3, adjusted with NaOH). The current signals were filtered at 1 kHz and digitized at a 10 kHz sampling frequency by using DigiData 1440 A.
Data of whole-cell voltage clamp experiments were fitted using doseResp function. The half inhibition concentrations were derived from fits of the dose–response curves to the function:1 I/I0=A1+A2-A1/1+10^logx0-xP, where I 0 and I are current amplitudes before and after application of inhibitors; A 1 and A 2 are constants between 0 and 1; x is the concentration of inhibitor; x o is the concentration when 50% inhibition was reached (IC50), P is the Hill constant.

mice [1] = test: Tail suspension test; assay type: in vivo, Male C57BL/6 mice; details: chronic i.p. administration 10 days; 0.5, 1, 5 mg kg-1
Protocol: (§1) Male C57BL/6 mice, aged 8 weeks (weighing 18–20 g) were used for acute and chronic drug administration and behavioral tests. The mice were housed four per cage under a 12-h light–dark cycle. Mice were raised under stable conditions with food and water ad libitum. All animal studies and experimental procedures were approved by the Animal Care Committees of the Shanghai Institute of Materia Medica, Chinese Academy of Sciences, and experiments were carried out in accordance with EU Directive 2010/63/EU on the protection of animals used for scientific purposes. […] The mice were removed to a sound-attenuating testing room 3–4 h before testing. The behavioral tests were carried out 30 min and 24 h after acute and chronic drugs administration, respectively.
Mice were secured on the shelf by using adhesive tape placed approximately 1 cm from the tip of the tail. The mice were then suspended by placing the other end of the tape on the edge of shelf at the height of 80 cm above the floor. Six-minute session was performed for each animal. A blinded experiment was conducted to record the amount of time spent immobile during the last 4 min of the testing period; the first 2 min were excluded. Because most mice are very active at the beginning of the test, and the potential effects of the treatment can be minimized during the first 2 min. […]

mice [2] = test: Open field test; assay type: in vivo, Male C57BL/6 mice; details: chronic i.p. administration 10 days
Protocol: as §1
The apparatus was made of opaque Plexiglas (50 cm × 50 cm) and placed in a room with sound proof. A camera was positioned above the apparatus to monitor the animal behaviors. The mice were randomly placed into the center of the sheet following 30 min drugs administration and their behaviors in the open field arena were recorded for 10 min using the camera. […] Locomotor activity and exploratory behavior were measured in the open field test and each animal was placed individually at the center for a 10 min session. The total distance moved and the number of rearing was measured in this experiment. […]

SMILES: CS(=O)(=O)N(CC(=O)N1CCc2ccccc2C1)c1ccc(Cl)cc1 [TKDC, N-(4-cholorphenyl)-N-(2-(3,4-dihydrosioquinolin-2(1H)-yl)-2-oxoethyl)methanesulfonamide]
- decrease in the current (TRAAK; TRAAK, 300 μM TKDC perfused): ~ 75%
- IC50 (TRAAK; CHO cells, WT TRAAK, mean ± s.e.m): 65.9 ± 7 µM
- immobility in the tail suspension test (mice [1]): dose-dependent decrease in immobility
- movement into the central area in the open field test (mice [2]): more likely to move into the central area
- total distance traveled in the open field test (mice [2]; among groups): no obvious difference
